pIC50: −log10 of the molar value.
Test system: PANC-1 complex spheroid growth, percent test/control
Assay: Anticancer human tumor PANC-1 cell line growth inhibition [Asc];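 also: spheroids exposed to agents for 7 days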;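 as to viability, T/C: percent viability relative to DMSO vehicle wells taken as 100%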
Conditions: for pIC50: curve of first compound; for viability, T/C: stronger effect = lower value
Method: Multicellular complex tumor spheroid response to apoptosis pathway targeting inhibitors Alrizomadlin, Pelcitoclax, and Dasminapant in combination with a variety of drugs and investigational agents in selected tumor cell lines
The MDM2 inhibitor alrizomadlin, the Bcl-2/Bcl-xL inhibitor pelcitoclax, and the IAPs inhibitor dasminapant were evaluated both individually and in combination with standard of care and investigational anticancer small molecules within a complex spheroid model of solid tumors. . Complex spheroids include a stromal component modeled by human endothelial cells (HUVEC) and fibroblasts modeled by human mesenchymal stem cells (MSCs). The concentration ranges selected for each drug and investigational agent were based upon clinically achievable concentrations if the clinical Cmax of the agent was known.
Compounds. The drugs and investigational agents: alrizomadlin (APG-115; NSC831270), pelcitoclax (APG-1252; NSC835773), dasminapant (APG-1387;NSC834197), TAK-243 (NSC785004), copanlisib (NSC809693), olaparib (NSC753686), talazoparib (NSC767125), cobimetinib (NSC 768068), eltanexor (KPT-8602, NSC 794443), abemaciclib (NSC 768073), sotorasib (NSC818433), adagrasib (NSC 831453), MRTX-1133 (NSC 836407), Iadademestat (ORY1001, NSC 806812), and RMC-4630 (NSC839698), were obtained from the NCI Developmental Therapeutics Program Chemical Repository. The FDA-approved anticancer drug set is available from the Developmental Therapeutics Program at https://dtp.cancer.gov/organization/dscb/obtaining/available plates.htm. […] The stock solutions were prepared in dimethyl sulfoxide (DMSO, Sigma-Aldrich, St. Louis, MO, cat. D2650) at 800-fold the tested concentration and stored at -70 degrees C prior to their use. All drugs and investigational agents were tested over a range starting from a high concentration at or near the clinical Cmax and decreasing in half-log increments. If the clinical Cmax for an agent had not been determined, the highest concentration tested was 10 microM.
The patient-derived cancer (PDC) cell lines include five colon adenocarcinomas: 186277-243-T-J2-PDC, 616215-338-R-J1-PDC, 439559-082-T-J2-PDC, 463943-066-T-J2-PDC, and 519858-162-T-J1-PDC; three pancreatic carcinomas: 323965-272-R-J2-PDC, 521955-158-R6-J3-PDC, and 521955-158-R2-J5-PDC; two uterine sarcomas: 327498-152-R-J2-PDC and 993429-296-R-J1-PDC; two rhabdomyosarcomas: 755483-174-R-J1-PDC and 772245-204-R-J1-PDC; two soft tissue sarcomas: 126254-015-R-J1-PDC and 494315-158-R-J1-PDC; two malignant fibrous histiocytomas: 317291-083-R-J1-PDC and 596521-263-R-J1-PDC; two breast carcinomas: 171881-019-R-J1-PDC and 885512-296-R-J2-PDC; and one ovarian carcinoma: 6556581-035-R-J-PDC were obtained from the NCI PDMR, (https://pdmr.cancer.gov). The established cell lines HSSY-2 synovial sarcoma (RRID:CVCL 8719), SYO-1 synovial sarcoma (RRID:CVCL_7146), MPNST malignant peripheral neural sheath tumor were obtained from the Sloan Kettering Institute. The following established cell lines were purchased from the American Type Culture Collection (ATCC, Manassas, VA), Sor the received from the NCI repository:, PANC-1 pancreatic carcinoma (CRL-1469, RRID:CVCL_0480), OVCAR-5 ovarian carcinoma (RRID:CVCL_1628), OVCAR-8 ovarian carcinoma (RRID:CVCL_1629), , MCF-7 breast carcinoma (CRL-12584, RRID:CVCL_0031), MDA-MB-231 breast carcinoma (CRL-12532, RRID:CVCL_0062), NCI-H1876 small cell lung carcinoma (CRL-5902, RRID:CVCL_1503), NCI-H510A small cell lung carcinoma (HTB-184, RRID:CVCL_1565), NCI-H1417 (CRL-5869, RRID:CVCL_1469), and NCI-H196 small cell lung carcinoma (CRL-5823, RRID:CVCL_1509). Dr. Peter Houghton (Greehey Children's Cancer Research Institute, University of Texas Health Science Center, San Antonio, TX) provided Rh-18 rhabdomyosarcoma (RRID:CVCL_1659). Pooled donor human umbilical vein endothelial cells (HUVEC, Lonza, cat. CC-2519) and human mesenchymal stem cells (hMSC, Lonza, cat. PT-2501) were purchased from Lonza (Walkersville, MD).
Cell Culture. […]

[1] = second compound 0.00949 µM, first compound 0.0316 µM
[2] = second compound 0.00949 µM, first compound 0.1 µM
[3] = second compound 0.03 µM, first compound 0.0316 µM
[4] = second compound 0.03 µM, first compound 0.1 µM
[5] = second compound 0.0949 µM, first compound 0.0316 µM
[6] = second compound 0.0949 µM, first compound 0.1 µM
[7] = second compound 0.3 µM, first compound 0.0316 µM
[8] = second compound 0.3 µM, first compound 0.1 µM
[9] = second compound 0.949 µM, first compound 0.0316 µM
[10] = second compound 0.949 µM, first compound 0.1 µM
[11] = second compound 3 µM, first compound 0.0316 µM
[12] = second compound 3 µM, first compound 0.1 µM

`Cn1ncnc1[C@H]1c2n[nH]c(=O)c3cc(F)cc(c23)N[C@@H]1c1ccc(F)cc1` + CCN1C(C(=O)NC23CCC(C(=O)O)(CC2)CC3)C(c2cccc(Cl)c2F)C2(C(=O)Nc3cc(Cl)ccc32)C12CCCCC2 was tested, and the pIC50 (second compound 0.00949 µM) was < 7.00, the pIC50 (second compound 0.03 µM) was < 7.00 and the pIC50 (second compound 0.0949 µM) was < 7.00. The pIC50 (second compound 0.3 µM) was < 7.00, the pIC50 (second compound 0.949 µM) was < 7.00 and the pIC50 (second compound 3 µM) was < 7.00. The viability, T/C (second compound 0.00949 µM, first compound 0.000316 µM) was 101%, the viability, T/C (second compound 0.00949 µM, first compound 0.001 µM) was 89.6% and the viability, T/C (second compound 0.00949 µM, first compound 0.00316 µM) was 97.4%. It also gave a viability, T/C (second compound 0.00949 µM, first compound 0.01 µM) of 96.7%, a viability, T/C [1] of 111% and a viability, T/C [2] of 113%. It also gave a viability, T/C (second compound 0.03 µM, first compound 0.000316 µM) of 107%, a viability, T/C (second compound 0.03 µM, first compound 0.001 µM) of 89.5% and a viability, T/C (second compound 0.03 µM, first compound 0.00316 µM) of 98.4%. It also gave a viability, T/C (second compound 0.03 µM, first compound 0.01 µM) of 98.9%, a viability, T/C [3] of 109% and a viability, T/C [4] of 101%. For the same compound, the viability, T/C (second compound 0.0949 µM, first compound 0.000316 µM) was 93.4%, the viability, T/C (second compound 0.0949 µM, first compound 0.001 µM) was 98.1% and the viability, T/C (second compound 0.0949 µM, first compound 0.00316 µM) was 103%. It also gave a viability, T/C (second compound 0.0949 µM, first compound 0.01 µM) of 94.2%, a viability, T/C [5] of 108% and a viability, T/C [6] of 102%. The viability, T/C (second compound 0.3 µM, first compound 0.000316 µM) was 98.8%, the viability, T/C (second compound 0.3 µM, first compound 0.001 µM) was 96.2% and the viability, T/C (second compound 0.3 µM, first compound 0.00316 µM) was 109%. It also gave a viability, T/C (second compound 0.3 µM, first compound 0.01 µM) of 101%, a viability, T/C [7] of 110% and a viability, T/C [8] of 106%. It also gave a viability, T/C (second compound 0.949 µM, first compound 0.000316 µM) of 111%, a viability, T/C (second compound 0.949 µM, first compound 0.001 µM) of 117% and a viability, T/C (second compound 0.949 µM, first compound 0.00316 µM) of 106%. For the same compound, the viability, T/C (second compound 0.949 µM, first compound 0.01 µM) was 107%, the viability, T/C [9] was 105% and the viability, T/C [10] was 114%. For the same compound, the viability, T/C (second compound 3 µM, first compound 0.000316 µM) was 109%, the viability, T/C (second compound 3 µM, first compound 0.001 µM) was 123% and the viability, T/C (second compound 3 µM, first compound 0.00316 µM) was 124%. The viability, T/C (second compound 3 µM, first compound 0.01 µM) was 116%, the viability, T/C [11] was 125% and the viability, T/C [12] was 106%.

In the case of `O=C(c1cc(Cc2n[nH]c(=O)c3ccccc23)ccc1F)N1CCN(C(=O)C2CC2)CC1` + CCN1C(C(=O)NC23CCC(C(=O)O)(CC2)CC3)C(c2cccc(Cl)c2F)C2(C(=O)Nc3cc(Cl)ccc32)C12CCCCC2, the pIC50 (second compound 0.00949 µM) was < 5.00, the pIC50 (second compound 0.03 µM) was < 5.00 and the pIC50 (second compound 0.0949 µM) was < 5.00. For the same compound, the pIC50 (second compound 0.3 µM) was < 5.00, the pIC50 (second compound 0.949 µM) was < 5.00 and the pIC50 (second compound 3 µM) was < 5.00. It also gave a viability, T/C [1] of 88.1%, a viability, T/C [2] of 93.6% and a viability, T/C (second compound 0.00949 µM, first compound 0.316 µM) of 96.2%. It also gave a viability, T/C (second compound 0.00949 µM, first compound 1 µM) of 93.6%, a viability, T/C (second compound 0.00949 µM, first compound 3.16 µM) of 114% and a viability, T/C (second compound 0.00949 µM, first compound 10 µM) of 104%. It also gave a viability, T/C [3] of 103%, a viability, T/C [4] of 98.7% and a viability, T/C (second compound 0.03 µM, first compound 0.316 µM) of 102%. It also gave a viability, T/C (second compound 0.03 µM, first compound 1 µM) of 99.4%, a viability, T/C (second compound 0.03 µM, first compound 3.16 µM) of 102% and a viability, T/C (second compound 0.03 µM, first compound 10 µM) of 97.2%. For the same compound, the viability, T/C [5] was 100%, the viability, T/C [6] was 94.9% and the viability, T/C (second compound 0.0949 µM, first compound 0.316 µM) was 99.5%. It also gave a viability, T/C (second compound 0.0949 µM, first compound 1 µM) of 104%, a viability, T/C (second compound 0.0949 µM, first compound 3.16 µM) of 102% and a viability, T/C (second compound 0.0949 µM, first compound 10 µM) of 93.9%. For the same compound, the viability, T/C [7] was 104%, the viability, T/C [8] was 97.9% and the viability, T/C (second compound 0.3 µM, first compound 0.316 µM) was 111%. It also gave a viability, T/C (second compound 0.3 µM, first compound 1 µM) of 103%, a viability, T/C (second compound 0.3 µM, first compound 3.16 µM) of 105% and a viability, T/C (second compound 0.3 µM, first compound 10 µM) of 93.2%. For the same compound, the viability, T/C [9] was 101%, the viability, T/C [10] was 103% and the viability, T/C (second compound 0.949 µM, first compound 0.316 µM) was 110%. For the same compound, the viability, T/C (second compound 0.949 µM, first compound 1 µM) was 102%, the viability, T/C (second compound 0.949 µM, first compound 3.16 µM) was 111% and the viability, T/C (second compound 0.949 µM, first compound 10 µM) was 101%. It also gave a viability, T/C [11] of 116%, a viability, T/C [12] of 117% and a viability, T/C (second compound 3 µM, first compound 0.316 µM) of 107%. For the same compound, the viability, T/C (second compound 3 µM, first compound 1 µM) was 126%, the viability, T/C (second compound 3 µM, first compound 3.16 µM) was 121% and the viability, T/C (second compound 3 µM, first compound 10 µM) was 114%.

Source: PubChem BioAssay AID1963435 (Molecular Pharmacology Branch, DTP, NCI, 2024)
